{"source": "patent EP1561465A2", "about": "“Methods of use of fluoroquinolone compounds against bacteria” (LG Life Sciences, Ltd., priority 1999, dated 2001)", "type_in_all_cases": "cell-based", "key": {"[1]": {"test_system": "Shigella spp.", "assay": "MIC by agar dilution (NCCLS M7-A4), 288 enteropathogenic isolates, eight quinolones", "conditions": "Shigella spp. (n = 21)"}, "[2]": {"test_system": "Streptococcus pneumoniae", "assay": "MIC by agar dilution (NCCLS), 411 isolates Buenos Aires 1998-99", "conditions": "for MIC / MIC90: Streptococcus pneumoniae; for MIC90: read-out: MIC90"}, "[3]": {"test_system": "Streptococcus pyogenes", "assay": "MIC by agar dilution (NCCLS), 411 isolates Buenos Aires 1998-99", "conditions": "Streptococcus pyogenes (n = 69)"}, "[4]": {"test_system": "Staphylococcus aureus", "assay": "MIC by agar dilution (NCCLS), 411 isolates Buenos Aires 1998-99", "conditions": "for MIC90: Staphylococcus aureus"}, "[5]": {"test_system": "Streptococcus pneumoniae and Haemophilus influenzae", "assay": "MIC by broth microdilution (NCCLS), all isolates pooled"}, "[6]": {"test_system": "Haemophilus influenzae", "assay": "MIC by two-fold serial agar dilution, Sensitivity Disk agar-N (Kitasato isolates)", "conditions": "Haemophilus influenzae (24)"}, "[7]": {"test_system": "Moraxella catarrhalis", "assay": "MIC by two-fold serial agar dilution, Sensitivity Disk agar-N (Kitasato isolates)", "conditions": "Moraxella catarrhalis (22)"}, "[8]": {"test_system": "Staphylococcus epidermidis", "assay": "MIC by NCCLS broth microdilution, 1100 Japanese clinical isolates 1997-1998", "conditions": "for MIC50 / MIC90: Staphylococcus epidermidis"}, "[9]": {"test_system": "Enterococcus faecalis", "assay": "MIC by NCCLS broth microdilution, 1100 Japanese clinical isolates 1997-1998", "conditions": "for MIC90 / MIC50: Enterococcus faecalis"}, "[10]": {"test_system": "Enterococcus faecium", "assay": "MIC by NCCLS broth microdilution, 1100 Japanese clinical isolates 1997-1998", "conditions": "for MIC: Enterococcus faecium"}, "[11]": {"test_system": "Enterococcus gallinarum", "assay": "MIC by NCCLS broth microdilution, 1100 Japanese clinical isolates 1997-1998"}, "[12]": {"test_system": "Citrobacter freundii", "assay": "MIC by NCCLS broth microdilution, 1100 Japanese clinical isolates 1997-1998", "conditions": "Citrobacter freundii"}, "[13]": {"conditions": "Streptococcus pneumoniae (n = 90)"}, "[14]": {"conditions": "S. aureus, Methicillin resistant (n = 14)"}, "[15]": {"conditions": "S. aureus, Methicillin susceptible (n = 66)"}, "[16]": {"conditions": "Staphylococcus epidermidis oxacillin resistant (n=43)"}, "[17]": {"conditions": "Staphylococcus epidermidis oxacillin susceptible (n=35)"}, "[18]": {"conditions": "Enterococcus faecalis ciprofloxacin resistant (n=15)"}, "[19]": {"conditions": "Enterococcus faecalis ciprofloxacin susceptible (n=24)"}}, "note": "Where two headings read alike, the source gives them in different places."}
{"compound": "CO/N=C1\\CN(c2nc3c(cc2F)c(=O)c(C(=O)O)cn3C2CC2)CC1CN", "note": "(racemic) [Gemifloxacin, (R,S)-7-(3-aminomethyl-4-methoxyiminopyrrolidin-1-yl)-1-cyclopropyl-6-fluoro-4-oxo-1,4-dihydro-1,8-naphthyridine-3-carboxylic acid]", "values": [{"measurement": "% Susceptible", "setting": "[1]", "value": 100, "unit": "%"}, {"measurement": "MIC50", "setting": "[1]", "value": "≤ 0.015", "unit": "µg/mL"}, {"measurement": "MIC90", "setting": "[1]", "value": "≤ 0.015", "unit": "µg/mL"}, {"measurement": "MIC Range", "setting": "[1]", "value": "≤0.015", "unit": "µg/mL"}, {"measurement": "MIC", "setting": "[2]", "value": 0.125, "unit": "µg/mL"}, {"measurement": "MIC Range", "setting": "[2]; [13]", "value": "≤0.004 to 0.125", "unit": "µg/mL"}, {"measurement": "MIC", "setting": "[2]; Ciprofloxacin-resistant S. pneumoniae, Strain 1, read-out: MIC", "value": 0.03, "unit": "µg/mL"}, {"measurement": "MIC", "setting": "[2]; Ciprofloxacin-resistant S. pneumoniae, Strain 2, read-out: MIC", "value": 0.06, "unit": "µg/mL"}, {"measurement": "MIC", "setting": "[2]; Ciprofloxacin-resistant S. pneumoniae, Strain 4, read-out: MIC", "value": 0.06, "unit": "µg/mL"}, {"measurement": "MIC90", "setting": "[2]; S. pneumoniae, Penicillin intermediate (n = 17)", "value": 0.03, "unit": "µg/mL"}, {"measurement": "MIC90", "setting": "[2]; S. pneumoniae, Penicillin resistant (n = 4)", "value": 0.03, "unit": "µg/mL"}, {"measurement": "MIC90", "setting": "[2]; S. pneumoniae, Penicillin susceptible (n = 69)", "value": 0.03, "unit": "µg/mL"}, {"measurement": "MIC90", "setting": "[2]; [13]", "value": 0.03, "unit": "µg/mL"}, {"measurement": "MIC Range", "setting": "[3]", "value": "≤0.004 to 0.125", "unit": "µg/mL"}, {"measurement": "MIC90", "setting": "[3]; read-out: MIC90", "value": 0.03, "unit": "µg/mL"}, {"measurement": "Resistance (%)", "setting": "[4]; [14]", "value": 0, "unit": "%"}, {"measurement": "Resistance (%)", "setting": "[4]; [15]", "value": 0, "unit": "%"}, {"measurement": "MIC Range", "setting": "[4]; Staphylococcus aureus (n = 80)", "value": "≤0.004 to 2", "unit": "µg/mL"}, {"measurement": "MIC90", "setting": "[4]; [14]", "value": 2, "unit": "µg/mL"}, {"measurement": "MIC90", "setting": "[4]; [15]", "value": 0.03, "unit": "µg/mL"}, {"measurement": "MIC90", "setting": "[4]; Staphylococcus aureus (n = 80)", "value": 1, "unit": "µg/mL"}, {"measurement": "concentration at which all microorganisms were inhibited", "setting": "[5]; 380 isolates (235 S. pneumoniae, 145 H. influenzae)", "value": 0.06, "unit": "µg/mL"}, {"measurement": "concentration at which all isolates were inhibited", "setting": "[5]; All 602 isolates", "value": 0.12, "unit": "µg/mL"}, {"measurement": "MIC90", "setting": "[5]; all (380) isolates tested (235 S. pneumoniae, 145 H. influenzae)", "value": 0.03, "unit": "µg/mL"}, {"measurement": "MIC90", "setting": "[5]; all isolates tested (602)", "value": 0.06, "unit": "µg/mL"}, {"measurement": "MIC50", "setting": "[6]", "value": 0.016, "unit": "µg/mL"}, {"measurement": "MIC90", "setting": "[6]", "value": 0.016, "unit": "µg/mL"}, {"measurement": "MIC Range", "setting": "[6]", "value": "0.008 to 0.031", "unit": "µg/mL"}, {"measurement": "MIC50", "setting": "[7]", "value": 0.031, "unit": "µg/mL"}, {"measurement": "MIC90", "setting": "[7]", "value": 0.031, "unit": "µg/mL"}, {"measurement": "MIC Range", "setting": "[7]", "value": "0.016 to 0.031", "unit": "µg/mL"}, {"measurement": "MIC Range", "setting": "[8]; [16]", "value": "0.032 to 4", "unit": "µg/mL"}, {"measurement": "MIC Range", "setting": "[8]; [17]", "value": "≤0.008 to 2", "unit": "µg/mL"}, {"measurement": "MIC50", "setting": "[8]; [16]", "value": 0.5, "unit": "µg/mL"}, {"measurement": "MIC90", "setting": "[8]; [16]", "value": 2, "unit": "µg/mL"}, {"measurement": "MIC50", "setting": "[8]; [17]", "value": 0.032, "unit": "µg/mL"}, {"measurement": "MIC90", "setting": "[8]; [17]", "value": 0.5, "unit": "µg/mL"}, {"measurement": "MIC90", "setting": "[9]", "value": 0.125, "unit": "µg/mL"}, {"measurement": "MIC Range", "setting": "[9]; [18]", "value": "0.063 to 32", "unit": "µg/mL"}, {"measurement": "MIC Range", "setting": "[9]; [19]", "value": "0.063 to 0.125", "unit": "µg/mL"}, {"measurement": "MIC50", "setting": "[9]; [18]", "value": 1, "unit": "µg/mL"}, {"measurement": "MIC90", "setting": "[9]; Enterococcus faecalis ciprofloxacin resistant (n=15), read-out: MIC90", "value": 8, "unit": "µg/mL"}, {"measurement": "MIC50", "setting": "[9]; [19]", "value": 0.063, "unit": "µg/mL"}, {"measurement": "MIC50", "setting": "[10]; Enterococcus faecium (n=39)", "value": 16, "unit": "µg/mL"}, {"measurement": "MIC90", "setting": "[10]; Enterococcus faecium (n=39)", "value": 64, "unit": "µg/mL"}, {"measurement": "MIC Range", "setting": "[10]; Enterococcus faecium (n=39)", "value": "0.063 to 64", "unit": "µg/mL"}, {"measurement": "MIC", "setting": "[10]; Enterococcus faecium (vanA) vancomycin resistant, strain TMS1", "value": 16, "unit": "µg/mL"}, {"measurement": "MIC", "setting": "[10]; Enterococcus faecium (vanA) vancomycin resistant, strain TMS2", "value": 2, "unit": "µg/mL"}, {"measurement": "MIC", "setting": "[10]; Enterococcus faecium (vanA) vancomycin resistant, strain TMS3", "value": 4, "unit": "µg/mL"}, {"measurement": "MIC", "setting": "[10]; Enterococcus faecium (vanA) vancomycin resistant, strain TMS4", "value": 4, "unit": "µg/mL"}, {"measurement": "MIC", "setting": "[10]; Enterococcus faecium (vanA) vancomycin resistant, strain TMS5", "value": 2, "unit": "µg/mL"}, {"measurement": "MIC", "setting": "[10]; Enterococcus laecium (van B) vancomycin resistant, strain TMS6", "value": 32, "unit": "µg/mL"}, {"measurement": "MIC", "setting": "[10]; Enterococcus laecium (van B) vancomycin resistant, strain TMS7", "value": 32, "unit": "µg/mL"}, {"measurement": "MIC", "setting": "[11]; Enterococcus gallinarum (vanC1), strain TMS3", "value": 0.125, "unit": "µg/mL"}, {"measurement": "MIC", "setting": "[11]; Enterococcus gallinarum, GALLINARUM", "value": 0.125, "unit": "µg/mL"}, {"measurement": "MIC", "setting": "[11]; Enterococcus gallinarum, GALLINARUM, Enterococcus gallinarum (vanC1), strain TMS1, read-out: MIC", "value": 0.032, "unit": "µg/mL"}, {"measurement": "MIC", "setting": "[11]; Enterococcus gallinarum, GALLINARUM, Enterococcus gallinarum (vanC1), strain TMS4, read-out: MIC", "value": 0.032, "unit": "µg/mL"}, {"measurement": "MIC50", "setting": "[12]", "value": 0.125, "unit": "µg/mL"}]}
